In ChEMBL document CHEMBL4138100, “Novel anti-inflammatory agents targeting CXCR4: Design, synthesis, biological evaluation and preliminary pharmacokinetic study” (Eur J Med Chem, 2017):
The source made the active and inactive calls. No cut-off for these calls is given here.

Experiments:
[1] = target: C-X-C chemokine receptor type 4 (Homo sapiens) (UniProt P61073); experiment: Inhibition of biotinylated TN14003 binding to CXCR4 in human MDA-MB-231 cells assessed as reduction in fluorescence preincubated for 10 mins followed by biotinylated-TN14003 addition measured after 30 mins by streptavidin-rhodamine staining based immunofluorescence microscopic analysis; assay type: cell-based
C-X-C chemokine receptor type 4 (Homo sapiens), sequence (P61073 whole entry): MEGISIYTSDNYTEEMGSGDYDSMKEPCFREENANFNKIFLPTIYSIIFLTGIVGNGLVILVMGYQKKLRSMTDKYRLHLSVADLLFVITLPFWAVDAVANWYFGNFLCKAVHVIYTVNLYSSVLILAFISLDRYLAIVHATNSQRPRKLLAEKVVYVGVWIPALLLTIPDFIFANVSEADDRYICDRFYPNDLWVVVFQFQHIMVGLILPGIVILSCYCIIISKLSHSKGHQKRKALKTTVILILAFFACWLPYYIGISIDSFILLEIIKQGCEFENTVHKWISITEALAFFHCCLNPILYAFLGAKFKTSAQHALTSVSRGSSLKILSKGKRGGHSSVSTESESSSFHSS

[2] = target: C-X-C chemokine receptor type 4 (Homo sapiens) (UniProt P61073); experiment: Inhibition of CXCR4-mediated chemotaxis in human MDA-MB-231 cells assessed as inhibition of CXCL12alpha-induced cell invasion at 100 nM after 22 hrs by hematoxylin/eosin dye-based matrigel assay relative to control; assay type: functional
[3] = target: C-X-C chemokine receptor type 4 (Homo sapiens) (UniProt P61073); experiment: Potency index, ratio of AMD3100 EC to compound EC for inhibition of biotinylated TN14003 binding to CXCR4 in human MDA-MB-231 cells; assay type: functional, cell-based
[4] = test system: Mus musculus; experiment: Antiinflammatory activity in mouse assessed as inhibition of xylene-induced ear edema at 10 mg/kg, ip treated post 30 mins xylene treatment measured at 2 hrs post dose relative to control; assay type: functional
[5] = test system: MDA-MB-231; experiment: Cytotoxicity against human MDA-MB-231 cells assessed as inhibition of cell proliferation at 10 uM after 24 to 72 hrs by MTT assay; assay type: cell-based; settings: mda-mb-231, 10 µM
[6] = Stability in nude mouse plasma assessed as parent compound remaining at 30 mg/kg, iv after 1 hr by HPLC analysis; assay type: ADME, organism-based; settings: in vivo
[7] = test system: Mus musculus; experiment: Antiinflammatory activity in mouse assessed as inhibition of xylene-induced ear thickness at 10 mg/kg, ip treated post 30 mins xylene treatment measured at 2 hrs post dose by histological analysis; assay type: functional, organism-based
[8] = Stability in nude mouse plasma assessed as parent compound remaining at 30 mg/kg, iv after 5 mins by HPLC analysis; assay type: ADME, organism-based; settings: read-out: Stability
[9] = test system: CXCR4; experiment: Selectivity index, ratio of antiproliferative activity in human MDA-MB-231 cells to EC for inhibition of biotinylated TN14003 binding to CXCR4 in human MDA-MB-231 cells; assay type: toxicity, cell-based; settings: probe biotinylated TN14003, read-out: Selectivity Index
[10] = Half life in nude mouse plasma at 30 mg/kg, iv by HPLC analysis; assay type: ADME, organism-based
[11] = target: C-X-C chemokine receptor type 4 (Homo sapiens) (UniProt P61073); experiment: Inhibition of CXCR4 in human MDA-MB-231 cells assessed as reduction in CXCR4/[…] signaling-mediated Akt Ser473 phosphorylation by Western blot analysis; assay type: functional, cell-based
[12] = test system: Mus musculus; experiment: Antiinflammatory activity in mouse assessed as inhibition of xylene-induced increase in number of inflammatory cells in ear at 10 mg/kg, ip treated post 30 mins xylene treatment measured at 2 hrs post last dose by histological analysis; assay type: functional, organism-based
[13] = Stability in nude mouse plasma assessed as parent compound remaining at 30 mg/kg, iv after 20 mins by HPLC analysis; assay type: ADME, organism-based; settings: read-out: Stability
[14] = Stability in nude mouse plasma assessed as parent compound remaining at 30 mg/kg, iv after 50 mins by HPLC analysis; assay type: ADME, organism-based; settings: read-out: Stability
[15] = test system: Mus musculus; experiment: Antiinflammatory activity in mouse assessed as inhibition of xylene-induced ear edema volume at 10 mg/kg, ip treated post 30 mins xylene treatment measured at 2 hrs post dose by histological analysis; assay type: functional, organism-based
[16] = test system: CXCR4; experiment: Selectivity index, ratio of antiproliferative activity in human MCF10A cells to EC for inhibition of biotinylated TN14003 binding to CXCR4 in human MDA-MB-231 cells; assay type: toxicity, cell-based; settings: probe biotinylated TN14003, read-out: Selectivity Index
[17] = test system: MCF-10A; experiment: Antiproliferative activity in human MCF10A cells at 10 uM after 24 to 72 hrs by MTT assay; assay type: cell-based

For `COc1cccc(C(=O)NCc2ccc(CNS(=O)(=O)c3ccccc3)cc2)c1`, the EC [1] was over 1000 nM.

`COc1ccccc1C(=O)NCc1ccc(CNS(=O)(=O)c2ccccc2)cc1` showed an inhibition [2] of over 90%, a Ratio [3] of 1000 and an EC [1] of 1 nM. The inhibition [4] was “inactive”.

Work on `O=C(NCc1ccc(CNS(=O)(=O)c2ccccc2)cc1)c1ccccc1` yielded an inhibition [2] of over 60%, a Ratio [3] of 1000 and an EC [1] of 1 nM. The inhibition in vivo at 10 mg/kg [4] was 62%.

Work on `Cc1ccc(S(=O)(=O)NCc2ccc(CNC(=O)c3ccccc3)cc2)cc1` yielded an EC [1] of over 1000 nM.

For `Cc1ccc(S(=O)(=O)NCc2ccc(CNC(=O)c3ccccc3F)cc2)cc1`, the EC [1] was 1000 nM.

With `O=C(NCc1ccc(CNS(=O)(=O)c2ccccc2)cc1)c1ccccc1Cl` the inhibition [2] was over 60%, the EC [1] was 10 nM and the inhibition [4] was “inactive”.

Molecule `Cc1ccc(S(=O)(=O)NCc2ccc(CNC(=O)c3cccc(C)c3)cc2)cc1` has an EC [1] of 1000 nM.

Work on `O=C(NCc1ccc(CNS(=O)(=O)c2ccccc2)cc1)c1cccc(F)c1` yielded an inhibition [2] of over 60% and an EC [1] of 100 nM.

`Cc1ccc(S(=O)(=O)NCc2ccc(CNC(=O)c3cccc(Cl)c3)cc2)cc1` showed an inhibition [2] of over 60%, an EC [1] of 100 nM and an inhibition in vivo at 10 mg/kg [4] of 57%.

With `O=C(NCc1ccc(CNS(=O)(=O)c2ccccc2)cc1)c1ccncc1` the inhibition [2] was over 60%, the EC [1] was 10 nM and the inhibition in vivo at 10 mg/kg [4] was 40%.

`Cc1ccc(S(=O)(=O)NCc2ccc(CNC(=O)c3ccc(Cl)cc3)cc2)cc1` gave an inhibition [2] of over 60%, an EC [1] of 10 nM and an inhibition in vivo at 10 mg/kg [4] of 50%.

In the case of `O=C(NCc1ccc(CNS(=O)(=O)c2ccccc2)cc1)c1ccc(Cl)cc1`, the inhibition [2] is reported as under 50% and the EC [1] is reported as 100 nM.

For `O=C(NCc1ccc(CNS(=O)(=O)c2ccccc2)cc1)c1cccc(Cl)c1`, the EC [1] was 1000 nM.

In the case of `Cc1ccc(S(=O)(=O)NCc2ccc(CNC(=O)c3ccc([N+](=O)[O-])cc3)cc2)cc1`, the inhibition [2] is reported as 55% and the EC [1] is reported as 10 nM.

`O=C(NCc1ccc(CNS(=O)(=O)c2ccccc2)cc1)c1ccccc1F` showed an EC [1] of 1000 nM.

With `O=C(NCc1ccc(CNS(=O)(=O)c2ccccc2)cc1)c1ccc([N+](=O)[O-])cc1` the inhibition [2] was 55% and the EC [1] was 100 nM.

With `COc1ccc(C(=O)NCc2ccc(CNS(=O)(=O)c3ccccc3)cc2)cc1` the EC [1] was 1000 nM.

Work on `Cc1ccc(S(=O)(=O)NCc2ccc(CNC(=O)c3cccc(F)c3)cc2)cc1` yielded an inhibition [2] of 55%, a Ratio [3] of 1000 and an EC [1] of 1 nM.

Molecule `COc1ccc(C(=O)NCc2ccc(CNS(=O)(=O)c3ccc(C)cc3)cc2)cc1` has an inhibition [2] of 55% and an EC [1] of 100 nM.

For `COc1ccccc1C(=O)NCc1ccc(CNS(=O)(=O)c2ccc(C)cc2)cc1`, the inhibition [2] was over 90%, the EC [1] was 100 nM and the inhibition [4] was “inactive”.

Work on `O=C(NCc1ccc(CNS(=O)(=O)c2ccccc2)cc1)c1cccnc1` yielded an inhibition [2] of over 60%, an EC [1] of 10 nM and an inhibition in vivo at 10 mg/kg [4] of 53%.

`Cc1ccc(C(=O)NCc2ccc(CNS(=O)(=O)c3ccc(C)cc3)cc2)cc1` showed an EC [1] of 1000 nM.

Molecule `Cc1ccccc1C(=O)NCc1ccc(CNS(=O)(=O)c2ccccc2)cc1` has an inhibition [2] of over 90%, a Ratio [3] of 1000 and an EC [1] of 1 nM. The inhibition [4] was “inactive”.

With `O=C(NCc1ccc(CNS(=O)(=O)c2ccccc2)cc1)c1c(Cl)cc(Cl)cc1Cl` the inhibition [2] was over 60%, the EC [1] was 10 nM and the inhibition [4] was “inactive”.

`Cc1ccc(S(=O)(=O)NCc2ccc(CNC(=O)c3c(Cl)cc(Cl)cc3Cl)cc2)cc1` showed an inhibition [2] of 55% and an EC [1] of 10 nM.

`Cc1ccc(C(=O)NCc2ccc(CNS(=O)(=O)c3ccccc3)cc2)cc1` gave an inhibition [2] of under 50% and an EC [1] of 100 nM.

`Cc1ccc(S(=O)(=O)NCc2ccc(CNC(=O)c3ccccc3C)cc2)cc1` gave an inhibition [2] of under 50% and an EC [1] of 100 nM.

Molecule `COc1cccc(C(=O)NCc2ccc(CNS(=O)(=O)c3ccc(C)cc3)cc2)c1` has an inhibition [2] of over 90%, an EC [1] of 10 nM and an inhibition in vivo at 10 mg/kg [4] of 28%.

`O=C(NCc1ccc(CNS(=O)(=O)c2ccccc2)cc1)c1ccc(F)cc1` showed an inhibition [2] of over 60%, an EC [1] of 100 nM and an inhibition in vivo at 10 mg/kg [4] of 40%.

`Cc1ccc(S(=O)(=O)NCc2ccc(CNC(=O)c3ccccc3Cl)cc2)cc1` showed an inhibition [2] of over 90%, an EC [1] of 10 nM and an inhibition in vivo at 10 mg/kg [4] of 26%.

In the case of `Cc1cccc(C(=O)NCc2ccc(CNS(=O)(=O)c3ccccc3)cc2)c1`, the EC [1] is reported as 1000 nM.

Molecule `Cc1ccc(S(=O)(=O)NCc2ccc(CNC(=O)c3cccnc3)cc2)cc1` has an EC [1] of over 1000 nM.

Molecule `Cc1ccc(S(=O)(=O)NCc2ccc(CNC(=O)c3ccncc3)cc2)cc1` has an inhibition [2] of 55% and an EC [1] of 10 nM.

In the case of `Cc1ccc(S(=O)(=O)NCc2ccc(CNC(=O)c3ccc(F)cc3)cc2)cc1`, the inhibition [2] is reported as over 60%, the Activity [5] is reported as “Non-Toxic” and the Stability [6] is reported as “Stable”. For the same molecule, the inhibition [7] was “Active”, the remaining at 5 min [8] was 100% and the selectivity ratio [9] was 1000. The half-life [10] was 40 min, the inhibition [11] was “Dose-dependent effect” and the inhibition [12] was “Active”. For the same molecule, the remaining at 20 min [13] was 65%, the remaining at 50 min [14] was 45% and the inhibition [15] was “Active”. It also gave an EC [1] of 1 nM, a selectivity ratio [16] of 1000 and an inhibition in vivo at 10 mg/kg [4] of 75%. The Activity [17] was “Non-Toxic”.
